Literature values in patent US8455508B2, “Sustained release parenteral formulations of buprenorphine” (priority 2007, dated 2013).

Conditions: in oil

**Q.** For `CCCCCCCCCC(=O)Oc1ccc2c3c1OC1C4(OC)CCC5(CC4C(C)(O)C(C)(C)C)C(C2)N(CC2CC2)CCC315` (stereo not shown) [buprenorphine decanoate], which “duration of action relative to buprenorphine HCl in saline” value is on record?
**A.** 14 fold
